Entries after “also recorded” stand apart in the source; their conditions may differ. Where two headings read alike, the source gives them in different places.
Columns and labels:
[1] = biological target: Amaranthus palmeri GS2.2 wild‐type (WT); experiment: GS enzyme inhibition assay, GS2.2 wild-type; format: biochemical; conditions: GS2.2 WT
Method: (§1) GS activity was determined spectrophotometrically following the Sigma‐Aldrich enzymatic assay protocol. The reaction couples the ATP‐dependent conversion of L‐glutamate and ammonium to L‐glutamine with pyruvate kinase (PK) and L‐lactate dehydrogenase (LDH), such that oxidation of β‐NADH to β‐NAD^+ can be monitored at 340 nm. Recombinant GS from A. palmeri was expressed in E. coli, purified by affinity chromatography, and quantified by the Bradford method using bovine serum albumin as standard. […] Reaction mixtures were equilibrated to 37°C and initiated by the addition of enzyme, and the decrease in absorbance at 340 nm was recorded for 5–10 min; only the linear portion of the curve was used for activity calculations. […] Activity was calculated using an extinction coefficient for NADH of 6.22 mM^−1 cm^−1 and expressed as units per mg protein, where one unit corresponds to the formation of 1 μmol of L‐glutamine in […] at pH 7.1 and 37 °C. […] Percent inhibition was calculated relative to untreated (positive) and no‐enzyme (negative) controls. […] Resistance factors were calculated by dividing the IC₅₀ of each mutant variant by that of wild‐type GS.

[2] = system: Arabidopsis thaliana plants expressing Amaranthus palmeri GS2.2 G255D; experiment: Postemergence GFA spray on transgenic Arabidopsis expressing GS2.2 G255D; format: in vivo; conditions: 100, 500 and 1000 g ha^−1 postemergence, listed as GFA
Source text: (§2) Mutant GS variants G2.2 G255D from A. palmeri and G254D from Arabidopsis were cloned into the RTP6557 transformation vector, which was subsequently introduced into Agrobacterium tumefaciens strain C58C1pMP90. The construct also carried an acetolactate synthase (ALS) herbicide‐resistance gene as a selectable marker, ensuring that Arabidopsis seedlings tested for resistance to GFA herbicide expressed the transgene.
(§3) Arabidopsis plants carrying immature floral buds were transformed by the floral‐dip method, immersing inflorescences for 10 s in the bacterial suspension supplemented with Silwet‐L77 at 0.05% v/v. After dipping, plants were maintained overnight under high humidity and low light, then transferred to long‐day conditions until maturity. Once siliques had yellowed, seeds were harvested into paper bags. T₁ seeds were collected, placed into Falcon tubes, and stored at 4 °C.
(§4) After ≥14 d of cold storage, T₁ seeds were sown and stratified as previously described. Transgenic plants were confirmed by PCR detection of the AHAS resistance marker gene. […]
(§5) Herbicide treatments were applied at the 10‐leaf stage using a spray chamber calibrated to deliver 375 L ha^−1 of spray solution. […] Herbicide efficacy was visually evaluated 7 d after application.

[3] = system: Arabidopsis thaliana plants expressing Arabidopsis GS2.2 G254D; experiment: Postemergence GFA spray on transgenic Arabidopsis expressing GS2.2 G254D; format: in vivo; conditions: transgenic Arabidopsis expressing Arabidopsis GS2.2 G254D; 100, 500 and 1000 g ha^−1 postemergence; listed as GFA
Source text: as §2, §3, §4, §5

[4] = system: Amaranthus palmeri cytosolic GS1.1 WT; experiment: GS enzyme inhibition assay, GS1.1 WT; format: biochemical; conditions: for IC50: read-out: Glufosinate‐ammonium IC50
Method: GS activity was determined spectrophotometrically following the Sigma‐Aldrich enzymatic assay protocol. The reaction couples the ATP‐dependent conversion of L‐glutamate and ammonium to L‐glutamine with pyruvate kinase (PK) and L‐lactate dehydrogenase (LDH), such that oxidation of β‐NADH to β‐NAD^+ can be monitored at 340 nm. Recombinant GS from A. palmeri was expressed in E. coli, purified by affinity chromatography, and quantified by the Bradford method using bovine serum albumin as standard. Assays were conducted at 37 °C in 3 mL total volume containing 34.1 mM imidazole (pH 7.1), 102 mM sodium L‐glutamate, 8.5 mM ATP, 1.1 mM phosphoenolpyruvate, 60 mM MgCl₂, 18.9 mM KCl, 45 mM NH₄Cl, 0.25 mM β‐NADH, 28 U PK, 40 U LDH, and 0.4–0.8 U recombinant GS. Reaction mixtures were equilibrated to 37°C and initiated by the addition of enzyme, and the decrease in absorbance at 340 nm was recorded for 5–10 min; only the linear portion of the curve was used for activity calculations. For inhibition assays, GFA was added directly to the reaction mixture to final concentrations ranging from 10^−8 M to 10^−2 M, using 2.5‐fold serial dilutions, with a no‐inhibitor control included in each run. Activity was calculated using an extinction coefficient for NADH of 6.22 mM^−1 cm^−1 and expressed as units per mg protein, where one unit corresponds to the formation of 1 μmol of L‐glutamine in […] at pH 7.1 and 37 °C. Background activity was corrected by including blank assays without GS. Percent inhibition was calculated relative to untreated (positive) and no‐enzyme (negative) controls. Assays were conducted in triplicates. IC₅₀ values (concentration of inhibitor reducing GS activity by 50%) were estimated by nonlinear regression (three‐ or four‐parameter log‐logistic models). Resistance factors were calculated by dividing the IC₅₀ of each mutant variant by that of wild‐type GS.

[5] = system: Amaranthus palmeri cytosolic GS1.1 E192K; experiment: GS enzyme inhibition assay, GS1.1 E192K; format: biochemical
Method: as §1

[6] = system: Amaranthus palmeri cytosolic GS1.1 E192Q; experiment: GS enzyme inhibition assay, GS1.1 E192Q; format: biochemical
Method: as §1

[7] = system: Amaranthus palmeri cytosolic GS1.1 G245S; experiment: GS enzyme inhibition assay, GS1.1 G245S; format: biochemical
Method: as §1

[8] = system: Amaranthus palmeri cytosolic GS1.1 H249N; experiment: GS enzyme inhibition assay, GS1.1 H249N; format: biochemical
Method: as §1

[9] = system: Amaranthus palmeri cytosolic GS1.1 R291G; experiment: GS enzyme inhibition assay, GS1.1 R291G; format: biochemical
Method: as §1

[10] = system: Amaranthus palmeri cytosolic GS1.1 R291H; experiment: GS enzyme inhibition assay, GS1.1 R291H; format: biochemical
Method: as §1

[11] = system: Amaranthus palmeri cytosolic GS1.1 R311Q; experiment: GS enzyme inhibition assay, GS1.1 R311Q; format: biochemical
Method: as §1

[12] = system: Amaranthus palmeri cytosolic GS1.1 R34A; experiment: GS enzyme inhibition assay, GS1.1 R34A; format: biochemical
Method: as §1

[13] = system: Amaranthus palmeri cytosolic GS1.1 K36A; experiment: GS enzyme inhibition assay, GS1.1 K36A; format: biochemical
Method: as §1

[14] = system: Amaranthus palmeri cytosolic GS1.1 G155F; experiment: GS enzyme inhibition assay, GS1.1 G155F; format: biochemical
Method: as §1

[15] = system: Amaranthus palmeri cytosolic GS1.1 G162N; experiment: GS enzyme inhibition assay, GS1.1 G162N; format: biochemical
Method: as §1

[16] = system: Amaranthus palmeri cytosolic GS1.1 K165S; experiment: GS enzyme inhibition assay, GS1.1 K165S; format: biochemical
Method: as §1

[17] = system: Amaranthus palmeri cytosolic GS1.1 V193T; experiment: GS enzyme inhibition assay, GS1.1 V193T; format: biochemical
Method: as §1

[18] = system: Amaranthus palmeri cytosolic GS1.1 E297S; experiment: GS enzyme inhibition assay, GS1.1 E297S; format: biochemical; conditions: IC50 variant / IC50 WT
Method: as §1

[19] = system: Amaranthus palmeri cytosolic GS1.1 A309L; experiment: GS enzyme inhibition assay, GS1.1 A309L; format: biochemical
Method: as §1

[20] = read-out: Glufosinate‐ammonium IC50

CP(=O)(O)CCC(N)C(=O)O (stereo not drawn) [Glufosinate‐ammonium]
IC50 [1]: 110 µM
tolerance to GFA (visual injury) [2]: chlorosis and necrosis comparable to wild‐type controls
tolerance to GFA (visual injury) [3]: failed to confer tolerance; also recorded: sensitive phenotype
Glufosinate‐ammonium % Inhibition at saturation 10 000 μM ([4]; 10 000 μM): 100%
Resistance index (RI) ([4]; IC50 variant / IC50 WT): 1
IC50 ([4]; Table 2 panel): 22.5 µM
IC50 ([4]; Table 3 panel): 21.7 µM
Glufosinate‐ammonium % Inhibition at saturation 10 000 μM ([5]; 10 000 μM): 1.3%
IC50 [5, 20]: > 10000 µM
Glufosinate‐ammonium % Inhibition at saturation 10 000 μM ([6]; 10 000 μM): 0%
IC50 [6, 20]: > 10000 µM
Glufosinate‐ammonium % Inhibition at saturation 10 000 μM ([7]; 10 000 μM): 9%
IC50 [7, 20]: > 10000 µM
Glufosinate‐ammonium % Inhibition at saturation 10 000 μM ([8]; 10 000 μM): 17%
IC50 [8, 20]: > 10000 µM
Glufosinate‐ammonium % Inhibition at saturation 10 000 μM ([9]; 10 000 μM): 0%
IC50 [9, 20]: > 10000 µM
Glufosinate‐ammonium % Inhibition at saturation 10 000 μM ([10]; 10 000 μM): 0%
IC50 [10, 20]: > 10000 µM
Glufosinate‐ammonium % Inhibition at saturation 10 000 μM ([11]; 10 000 μM): 1.9%
IC50 [11, 20]: > 10000 µM
Resistance index (RI) ([12]; IC50 variant / IC50 WT): 8.4
IC50 [12, 20]: 182 µM
Resistance index (RI) ([13]; IC50 variant / IC50 WT): 11.5
IC50 [13, 20]: 248 µM
Resistance index (RI) ([14]; IC50 variant / IC50 WT): 11.7
IC50 [14, 20]: 254 µM
Resistance index (RI) ([15]; IC50 variant / IC50 WT): 22.6
IC50 [15, 20]: 489 µM
Resistance index (RI) ([16]; IC50 variant / IC50 WT): 0.3
IC50 [16, 20]: 7.6 µM
Resistance index (RI) ([17]; IC50 variant / IC50 WT): 3.2
IC50 [17, 20]: 69 µM
Resistance index (RI) [18]: 0.0
Resistance index (RI) ([19]; IC50 variant / IC50 WT): 9.4
IC50 [19, 20]: 204 µM

Reference: publication PMC13352219, “Analysis of glutamine synthetase target‐site mutations and their role in endowing glufosinate‐ammonium resistance” (Pest Management Science, 2026)
